Measurements published in paper PMC12689286, “Enhanced therapeutics of cabazitaxel via polycarboxylate conjugation: improved solubility, safety, and antitumor efficacy” (Frontiers in Immunology, 2025).

Tests used:
[1] = Lipid-aqueous (octanol/water) partition coefficient; format: physicochemical; settings: room temperature
Experimental: CTXs were dissolved in octanol, and an equal volume of water was added, followed by shaken at 100 rpm for 24 h at room temperature. The upper octanol phase and lower water phase were separated by centrifugation. The supernatant was analyzed by HPLC (Bruker SolanX 70 FT-MS; Agilent 6540TOF) ([21]).

A549 = assay: MTS cytotoxicity, A549; format: cell-based; settings: Homo sapiens
Experimental: (§1) Human cancer cell lines were cultured in basic medium (10% fetal bovine serum (FBS)+1% double antibody solution) (Biological Industries) at 37°C in a 5% CO2 incubator. Effects of CTXs on cell proliferation and viability were measured by an MTS (Promega Corporation) assay. Absorbance values at 490 nm were measured using a microplate reader (Thermo Scientific, Varioskan Flash) ([22]).

Bel-7402 = assay: MTS cytotoxicity, Bel-7402; format: cell-based; settings: Homo sapiens; Bel-7402, MTS
Experimental: as §1

DU145 = assay: MTS cytotoxicity, DU145; format: cell-based; settings: Homo sapiens, DU-145
Experimental: as §1

H358 = assay: MTS cytotoxicity, H358; format: cell-based; settings: Homo sapiens, NCI-H358
Experimental: as §1

H460 = assay: MTS cytotoxicity, H460; format: cell-based; settings: Homo sapiens, NCI-H460
Experimental: as §1

H520 = assay: MTS cytotoxicity, H520; format: cell-based; settings: Homo sapiens, NCI-H520
Experimental: as §1

HT-29 = assay: MTS cytotoxicity, HT-29; format: cell-based; settings: Homo sapiens; HT-29, MTS
Experimental: as §1

MCF-7 = assay: MTS cytotoxicity, MCF-7; format: cell-based; settings: Homo sapiens, MCF7; MCF-7, MTS
Experimental: as §1

PC-3 = assay: MTS cytotoxicity, PC-3; format: cell-based; settings: Homo sapiens; PC-3, MTS
Experimental: as §1

SK-OV-3 = assay: MTS cytotoxicity, SK-OV-3; format: cell-based; settings: Homo sapiens; SK-OV-3, MTS
Experimental: as §1

L-02 = assay: MTS cytotoxicity, L-02 (non-tumor); format: cell-based; settings: Homo sapiens, L02, L-02 non-tumor cell line
Experimental: as §1

Hemolysis test = format: cell-based, SD rats; settings: SD, rat, rat red blood cells, 2% (v/v) suspension, 37 °C, 1.5 h
Experimental: The hemolytic potential of CTX formulations was evaluated using rat red blood cells (RBCs). Briefly, whole blood was collected from the abdominal aorta of anesthetized SD rats into ACD anticoagulant (blood:ACD = 1:4, v/v). The blood was diluted with normal saline (4:5, v/v) and centrifuged at 450 g for 10 min. The RBC pellet was washed three times with normal saline until the supernatant was clear. The washed RBCs were then resuspended in normal saline to prepare a 2% (v/v) suspension.
For the assay, 500 μL of the 2% RBC suspension was mixed with an equal volume of serially diluted drugs or controls in 1.5 mL tubes. The controls included: Negative control (0% hemolysis): normal saline. Positive control (100% hemolysis): distilled water. Solvent control: the vehicle for unmodified CTX (2.5% Tween 80 + 2.5% anhydrous ethanol + 95% normal saline). The mixtures were incubated at 37 °C for 1.5 h and then centrifuged at 450 g for 5 min. Subsequently, 150 μL of the supernatant from each tube was transferred to a 96-well plate, and the absorbance at 545 nm (OD545) was measured using a microplate reader. The percentage of hemolysis was calculated using the following formula: Hemolysis (%) = [(ODsample - ODnegative control)/(ODpositive control - ODnegative control)] × 100.

MCF-7 xenografts = assay: MCF-7 breast cancer xenograft, tumor volume; format: in vivo, BALB/c nude mice; settings: MCF-7 xenograft, 9.6 μmol/kg
Experimental: All animal experiments were conducted in accordance with protocols approved by the Institutional Animal Care and Use Committee of Peking Union Medical College. Male BALB/c nude mice (6–8 weeks old) and female KM mice (6–8 weeks old) were purchased from Charles River Laboratories (Beijing, China) and maintained under specific pathogen-free conditions.
MCF-7 Breast Cancer Model: Female BALB/c nude mice bearing MCF-7 xenografts (2×10^6 cells/mouse) were randomized into treatment groups as described above, with an adjusted dose of 9.6 μmol/kg for all CTX formulations.

[2] = Systemic toxicity in H22 tumor-bearing mice (body weight, blood count); format: in vivo, KM mice
Experimental: H22 hepatoma model: Female KM mice were subcutaneously implanted with H22 cells (2×10^6 cells/mouse) and assigned to six groups: (a) Vehicle control; (b) CTX (9.6 μmol/kg in 5% glucose with 2.5% ethanol/2.5% Tween 80); (c) CTX-TTHA (9.6 μmol/kg in saline); (d) CTX-DTPA (9.6 μmol/kg in saline); (e) CTX-TTHA (19.1 μmol/kg in saline); (f) CTX-DTPA (19.1 μmol/kg in saline).
Treatments were administered every other day for four doses (three doses for CTX group due to weight loss >15%). Peripheral blood samples were collected for complete blood count analysis using an automated hematology analyzer.

Excretion (urine, feces) = format: in vivo; settings: SD rats, 6 μmol/kg iv
Experimental: Male and female SD rats (200–220 g) received intravenous injections of CTX or CTX-DTPA (6 μmol/kg). […] Blood samples were collected at 5 min to 24 h post-dose. Tissues (heart, liver, spleen, lung, kidney, thymus) and excreta were collected at 15 min, 2 h, 4 h, and 12 h. Plasma and tissue samples were processed by liquid-liquid extraction with n-butanol and analyzed via LC-MS/MS (Agilent Poroshell 120 EC-C18 column; 0.05% formic acid/acetonitrile gradient). Pharmacokinetic parameters were calculated using DAS 2.0 via non-compartmental analysis.

Row | SMILES | logP at 24 h [1] | IC50 (A549) [nM] | IC50 (Bel-7402) [nM] | IC50 (DU145) [nM] | IC50 (H358) [nM] | IC50 (H460) [nM] | IC50 (H520) [nM] | IC50 (HT-29) [nM] | IC50 (MCF-7) [nM] | IC50 (PC-3) [nM] | IC50 (SK-OV-3) [nM] | IC50 (L-02) [nM] | tumor volume at study endpoint (MCF-7 xenografts) [mm³] | also measured
1 | COC1C(=O)C2(C)C(OC)CC3OCC3(OC(C)=O)C2C(OC(=O)c2ccccc2)C2(O)CC(OC(=O)C(OC(=O)CN(CCN(CCN(CC(=O)O)CC(=O)O)CC(=O)O)CC(=O)O)C(NC(=O)OC(C)(C)C)c3ccccc3)C(C)=C1C2(C)C (stereo not drawn) [CTX-DTPA] | 0.49 ± 0.12 | 3 ± 1.1 | 2.9 ± 0.9 | 5.1 ± 1.4 | 1.6 ± 0.7 | 2.4 ± 1.1 | 2 ± 1.3 | 6.7 ± 2.9 | 6.8 ± 2.4 | 4.1 ± 0.7 | 5.4 ± 1.3 | 8.8 ± 3.6 | 111 ± 18 | hemolysis at 1.5 h, 300 nmol/mL (Hemolysis test; 300 nmol/mL (maximum tested), read-out: hemolysis rate): 12.1 ± 9.2%; hemolysis at 1.5 h (Hemolysis test; concentrations up to 150 nmol/mL): < 2%; WBC counts ([2]; H22 mice, throughout treatment, across all dose groups (9.6 and 19.1 μmol/kg)): 3.50-5.60 ×10^9/L; urinary excretion of intact CTX-DTPA (Excretion (urine, feces); cumulative): 2191.14 ± 853.66 µg/kg; renal excretion (Excretion (urine, feces); within 24 hours): 39.8 ± 12.7%
2 | CO[C@H]1C(=O)[C@]2(C)[C@@H](OC)C[C@H]3OC[C@@]3(OC(C)=O)[C@H]2[C@H](OC(=O)c2ccccc2)[C@]2(O)C[C@H](OC(=O)[C@H](O)[C@@H](NC(=O)OC(C)(C)C)c3ccccc3)C(C)=C1C2(C)C [CTX, Cabazitaxel] | 4.55 ± 0.1 | 2.5 ± 1.2 | 2.8 ± 0.5 | 6.1 ± 2.4 | 1.2 ± 0.6 | 2.4 ± 1.3 | 1.5 ± 0.7 | 7.4 ± 3.4 | 5.3 ± 1.9 | 5.2 ± 1.7 | 4.4 ± 0.9 | 7.8 ± 1.5 | 56 ± 12 | hemolysis at 1.5 h, 4.7 nmol/mL (Hemolysis test; 4.7 nmol/mL, read-out: hemolysis rate): 11 ± 3.2%; hemolysis at 1.5 h, 75 nmol/mL (Hemolysis test; 75 nmol/mL, read-out: hemolysis rate): 73.4 ± 5.8%; white blood cell count ([2]; H22 mice, day 7 post-treatment, controls 4.46 ± 1.19): 1.55 ± 0.17 ×10^9/L; body weight loss ([2]; H22 tumor-bearing mice, 9.6 μmol/kg): 11-16%; total excretion of administered dose (Excretion (urine, feces); in 24 h): < 1 % of dose
